Assay results published in patent publication US10683292B2, “Purine and 3-deazapurine analogues as choline kinase inhibitors” (NERVIANO MEDICAL SCIENCES S.R.L., priority 2016, dated 2020).
Counter-ions that a name gives are not always drawn.

Key:
[1] = target: T1, hChoKβ FL (Homo sapiens, UniProt Q9Y259); assay: Biochemical kinase inhibition assay (Kinase-Glo Luminescent Kinase Assay) on hChoKβ FL; details: ATP 5 μM, choline 20 μM, 60 minutes at rt; read-out: IC50 ChoKβ
T1 construct: hChoKβ full length (FL), corresponding to aminoacids 2-395; GST (N, cleaved yes); Prescission Protease recognition site (N, cleaved yes); made in house; host or cells: Escherichia coli BL21pLysS (DE3)

[2] = target: T2, Δ49N-hChoKα (Homo sapiens, UniProt P35790); assay: Biochemical kinase inhibition assay (Kinase-Glo Luminescent Kinase Assay) on Δ49N-hChoKα; details: ATP 5 μM, choline 5 μM, 60 minutes at rt; read-out: IC50 ChoKα
T2 construct: cDNA fragment 362-1534, corresponding to aminoacids 50-457; GST (N, cleaved yes); Prescission Protease recognition site (N, cleaved yes); made in house; host or cells: Escherichia coli BL21pLysS (DE3)
T2 sequence (P35790 50-457, stated change not applied): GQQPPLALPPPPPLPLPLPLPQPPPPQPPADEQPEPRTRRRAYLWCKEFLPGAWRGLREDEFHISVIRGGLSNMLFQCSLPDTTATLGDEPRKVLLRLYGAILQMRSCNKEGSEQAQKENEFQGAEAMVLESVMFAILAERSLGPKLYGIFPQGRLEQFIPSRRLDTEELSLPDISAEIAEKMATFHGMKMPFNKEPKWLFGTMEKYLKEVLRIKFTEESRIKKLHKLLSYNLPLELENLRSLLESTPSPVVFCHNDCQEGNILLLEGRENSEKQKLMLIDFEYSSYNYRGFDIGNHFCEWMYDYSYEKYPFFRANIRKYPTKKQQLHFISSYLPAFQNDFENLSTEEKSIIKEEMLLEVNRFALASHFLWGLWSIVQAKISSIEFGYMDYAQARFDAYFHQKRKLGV
Description: The biochemical activity of compounds against Δ49N-ChoKα and ChoKβ FL were determined using the Kinase-Glo™ Luminescent Kinase Assay (Promega cat. V6711).
Compounds were 3-fold serially diluted from 10 to 0.0005 μM, then incubated for 60 minutes at rt in the presence of ATP 5 μM, choline (5 μM for ChoKα and 20 μM for ChoKβ) and enzyme in a final volume of 19 μL of kinase buffer (50 mM Hepes pH 7.5, 10 mM MgCl2, 1 mM DTT, 3 μM Na3VO4 and 0.2 mg/mL BSA). The final concentration of DMSO was 1%.
At the end of the incubation, an amount of 19 μL of KinaseGlo Reagent was added to each well to stop the reaction and after 30 minutes the luminescence signal was measured using ViewLux reader (Perkin Elmer).
The data per each molecule are analyzed by an internally customized version of the SW package “Assay Explorer” which provides sigmoidal fittings of the ten-dilution curves for IC50 determination using a 4 parameter logistic equation: y=bottom+(top−bottom)/(1+10^((log IC50−x)*slope)) where x is the logarithm of the inhibitor concentration, y is the response; y starts at bottom and goes to top with a sigmoid shape.

T1 sequence (Q9Y259 2-395): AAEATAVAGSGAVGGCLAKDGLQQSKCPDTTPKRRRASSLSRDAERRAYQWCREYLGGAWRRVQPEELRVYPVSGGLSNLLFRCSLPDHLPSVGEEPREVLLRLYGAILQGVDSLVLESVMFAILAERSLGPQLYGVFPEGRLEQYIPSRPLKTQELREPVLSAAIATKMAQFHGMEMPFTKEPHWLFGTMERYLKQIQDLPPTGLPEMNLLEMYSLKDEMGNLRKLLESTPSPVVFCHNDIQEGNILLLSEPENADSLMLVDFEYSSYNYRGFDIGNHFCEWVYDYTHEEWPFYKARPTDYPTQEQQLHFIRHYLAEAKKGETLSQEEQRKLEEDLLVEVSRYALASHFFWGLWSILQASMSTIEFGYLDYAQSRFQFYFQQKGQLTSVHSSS

SMILES | IC50 [1] [nM] | IC50 [2] [nM]
Cc1csc(NC(=O)[C@H]2CC[C@@H](n3cnc4c(N)nc(-c5cccc(C(=O)Nc6ccc(CN7CCC(N(C)C)CC7)cc6)c5)nc43)CC2)n1 [cpd 85, 3-(6-amino-9-{cis-4-[(4-methyl-1,3-thiazol-2-yl)carbamoyl]cyclohexyl}-9H-purin-2-yl)-N-(4-{[4-(dimethylamino)piperidin-1-yl]methyl}phenyl)benzamide bis-trifluoroacetate] | > 10000 | 11
Nc1nc(Cl)nc2c1ncn2[C@H]1CC[C@@H](C(=O)Nc2nc(CC(=O)N3CCC(N4CCCCC4)CC3)cs2)CC1 [cpd 86, cis-4-(6-amino-2-chloro-9H-purin-9-yl)-N-{4-[2-(1,4′-bipiperidin-1′-yl)-2-oxoethyl]-1,3-thiazol-2-yl}cyclohexanecarboxamide] | > 10000 | 52
COc1cccc(NC(=O)[C@H]2CC[C@@H](n3cnc4c(N)nc(C5CC5)nc43)CC2)c1 [cpd 87, cis-4-(6-amino-2-cyclopropyl-9H-purin-9-yl)-N-(3-methoxyphenyl)cyclohexanecarboxamide] | > 10000 | 974
COC(=O)[C@H]1CC[C@@H](n2cnc3c(N)nc(Cl)nc32)CC1 [cpd 88, methyl cis-4-(6-amino-2-chloro-9H-purin-9-yl)cyclohexanecarboxylate] | > 10000 | 524
CS(=O)(=O)c1ccc2nc(NC(=O)[C@H]3CC[C@@H](n4cnc5c(N)nc(Cl)nc54)CC3)sc2c1 [cpd 89, cis-4-(6-amino-2-chloro-9H-purin-9-yl)-N-[6-(methylsulfonyl)-1,3-benzothiazol-2-yl]cyclohexanecarboxamide] | 4160 | 64
Nc1nc(Cl)nc2c1ncn2[C@H]1CC[C@@H](C(=O)Nc2nc3ccc(Cl)cc3s2)CC1 [cpd 90, cis-4-(6-amino-2-chloro-9H-purin-9-yl)-N-(6-chloro-1,3-benzothiazol-2-yl)cyclohexanecarboxamide] | > 10000 | 28
Cc1cc2nc(NC(=O)[C@H]3CC[C@@H](n4cnc5c(N)nc(Cl)nc54)CC3)sc2cc1C [cpd 93, cis-4-(6-amino-2-chloro-9H-purin-9-yl)-N-(5,6-dimethyl-1,3-benzothiazol-2-yl)cyclohexanecarboxamide] | 6080 | 48
Nc1nc(Cl)nc2c1ncn2[C@H]1CC[C@@H](C(=O)Nc2nc3cc(Cl)ccc3o2)CC1 [cpd 94, cis-4-(6-amino-2-chloro-9H-purin-9-yl)-N-(5-chloro-1,3-benzoxazol-2-yl)cyclohexanecarboxamide] | 5620 | 178
Cn1c(NC(=O)[C@H]2CC[C@@H](n3cnc4c(N)nc(Cl)nc43)CC2)nc2ccccc21 [cpd 95, cis-4-(6-amino-2-chloro-9H-purin-9-yl)-N-(1-methyl-1H-benzimidazol-2-yl)cyclohexanecarboxamide] | 7120 | 268
Cc1csc(NC(=O)[C@H]2CC[C@@H](n3cnc4c(N)nc(-c5cccc(C(N)=O)c5)nc43)CC2)n1 [cpd 96, 3-(6-amino-9-{cis-4-[(4-methyl-1,3-thiazol-2-yl)carbamoyl]cyclohexyl}-9H-purin-2-yl)benzamide] | > 10000 | 274
Cc1csc(NC(=O)[C@H]2CC[C@H](n3cnc4c(N)nc(-c5cccc(C(N)=O)c5)nc43)CC2)n1 [cpd 97, 3-(6-amino-9-{trans-4-[(4-methyl-1,3-thiazol-2-yl)carbamoyl]cyclohexyl}-9H-purin-2-yl)benzamide] | > 10000 | 478
Cc1csc(NC(=O)[C@H]2CC[C@@H](n3cnc4c(N)nc(C#C[Si](C)(C)C)nc43)CC2)n1 [cpd 98, cis-4-{6-amino-2-[(trimethylsilyl)ethynyl]-9H-purin-9-yl}-N-(4-methyl-1,3-thiazol-2-yl)cyclohexanecarboxamide] | > 10000 | 120
Cc1csc(NC(=O)[C@H]2CC[C@@H](n3cnc4c(N)nc(-c5cccc(OCc6ccccc6)c5)nc43)CC2)n1 [cpd 100, cis-4-{6-amino-2-[3-(benzyloxy)phenyl]-9H-purin-9-yl}-N-(4-methyl-1,3-thiazol-2-yl)cyclohexanecarboxamide] | > 10000 | 248
Cc1csc(NC(=O)[C@H]2CC[C@@H](n3cnc4c(N)nc(C#N)nc43)CC2)n1 [cpd 102, cis-4-(6-amino-2-cyano-9H-purin-9-yl)-N-(4-methyl-1,3-thiazol-2-yl)cyclohexanecarboxamide] | > 10000 | 88
Cc1csc(NC(=O)[C@H]2CC[C@@H](n3cnc4c(N)nc(-c5cccc(O)c5)nc43)CC2)n1 [cpd 103, cis-4-[6-amino-2-(3-hydroxyphenyl)-9H-purin-9-yl]-N-(4-methyl-1,3-thiazol-2-yl)cyclohexanecarboxamide] | > 10000 | 176
Cc1csc(NC(=O)[C@H]2CC[C@@H](n3cnc4c(N)nc(-c5cc[nH]n5)nc43)CC2)n1 [cpd 112, cis-4-[6-amino-2-(1H-pyrazol-3-yl)-9H-purin-9-yl]-N-(4-methyl-1,3-thiazol-2-yl)cyclohexanecarboxamide] | > 10000 | 120

SMILES | IC50 [1] [nM] | IC50 [2] [nM]
Cc1csc(NC(=O)[C@H]2CC[C@H](n3cnc4c(N)nc(-c5cc[nH]n5)nc43)CC2)n1 [cpd 113, trans-4-[6-amino-2-(1H-pyrazol-3-yl)-9H-purin-9-yl]-N-(4-methyl-1,3-thiazol-2-yl)cyclohexanecarboxamide] | > 10000 | 613
COc1cccc2sc(NC(=O)[C@H]3CC[C@@H](n4cnc5c(N)nc(I)nc54)CC3)nc12 [cpd 116, cis-4-(6-amino-2-iodo-9H-purin-9-yl)-N-(4-methoxy-1,3-benzothiazol-2-yl)cyclohexanecarboxamide] | > 10000 | 43
C#Cc1nc(N)c2ncn([C@H]3CC[C@@H](C(=O)Nc4nc5c(OC)cccc5s4)CC3)c2n1 [cpd 119, cis-4-(6-amino-2-ethynyl-9H-purin-9-yl)-N-(4-methoxy-1,3-benzothiazol-2-yl)cyclohexanecarboxamide] | 7700 | 21
Nc1nc(Cl)nc2c1ncn2[C@H]1CC[C@@H](C(=O)Nc2nc(CN3CCC(N)CC3)cs2)CC1 [cpd 120, cis-4-(6-amino-2-chloro-9H-purin-9-yl)-N-{4-[(4-aminopiperidin-1-yl)methyl]-1,3-thiazol-2-yl}cyclohexanecarboxamide] | > 10000 | 40
COc1cccc2sc(NC(=O)[C@H]3CC[C@@H](n4cnc5c(N)nc(F)nc54)CC3)nc12 [cpd 126, cis-4-(6-amino-2-fluoro-9H-purin-9-yl)-N-(4-methoxy-1,3-benzothiazol-2-yl)cyclohexanecarboxamide] | > 10000 | 31
Nc1nc(F)nc2c1ncn2[C@H]1CC[C@@H](C(=O)Nc2nc3c(O)cccc3s2)CC1 [cpd 127, cis-4-(6-amino-2-fluoro-9H-purin-9-yl)-N-(4-hydroxy-1,3-benzothiazol-2-yl)cyclohexanecarboxamide] | > 10000 | 45
Nc1nc(F)nc2c1ncn2[C@H]1CC[C@@H](C(=O)Nc2nc3ccc(F)cc3s2)CC1 [cpd 128, cis-4-(6-amino-2-fluoro-9H-purin-9-yl)-N-(6-fluoro-1,3-benzothiazol-2-yl)cyclohexanecarboxamide] | > 10000 | 38
Cc1csc(NC(=O)[C@H]2CC[C@@H](n3cnc4c(N)nc(C(F)(F)F)nc43)CC2)n1 [cpd 129, cis-4-[6-amino-2-(trifluoromethyl)-9H-purin-9-yl]-N-(4-methyl-1,3-thiazol-2-yl)cyclohexanecarboxamide] | > 10000 | 416
Nc1nc(C(F)(F)F)nc2c1ncn2[C@H]1CC[C@@H](C(=O)Nc2nc3ccc(F)cc3s2)CC1 [cpd 132, cis-4-[6-amino-2-(trifluoromethyl)-9H-purin-9-yl]-N-(6-fluoro-1,3-benzothiazol-2-yl)cyclohexanecarboxamide] | > 10000 | 257
Nc1nc(Cl)nc2c1ncn2[C@H]1CC[C@@H](C(=O)Nc2nc3ccncc3s2)CC1 [cpd 138, cis-4-(6-amino-2-chloro-9H-purin-9-yl)-N-([1,3]thiazolo[5,4-c]pyridin-2-yl)cyclohexanecarboxamide hydrochloride] | > 10000 | 97
Nc1nc(Cl)nc2c1ncn2[C@H]1CC[C@@H](NC(=O)c2nc3ccccc3s2)CC1 [cpd 140, N-[cis-4-(6-amino-2-chloro-9H-purin-9-yl)cyclohexyl]-1,3-benzothiazole-2-carboxamide] | > 10000 | 514
COc1cccc(C(=O)N[C@H]2CC[C@@H](n3cnc4c(N)nc(Cl)nc43)CC2)c1 [cpd 144, N-[cis-4-(6-amino-2-chloro-9H-purin-9-yl)cyclohexyl]-3-methoxybenzamide] | > 10000 | 341
Cc1csc(NC(=O)[C@H]2CC[C@@H](n3cnc4c(N)nc(C(N)=O)nc43)CC2)n1 [cpd 146, 6-amino-9-{cis-4-[(4-methyl-1,3-thiazol-2-yl)carbamoyl]cyclohexyl}-9H-purine-2-carboxamide] | > 10000 | 73
Nc1nc2ccc(OC(=O)[C@H]3CC[C@@H](n4cnc5c(N)nc(Cl)nc54)CC3)cc2s1 [cpd 159, 2-amino-1,3-benzothiazol-6-yl cis-4-(6-amino-2-chloro-9H-purin-9-yl)cyclohexanecarboxylate] | 7040 | 65
Nc1nc2c(OC(=O)[C@H]3CC[C@@H](n4cnc5c(N)nc(F)nc54)CC3)cccc2s1 [cpd 160, 2-amino-1,3-benzothiazol-4-yl cis-4-(6-amino-2-fluoro-9H-purin-9-yl)cyclohexanecarboxylate] | > 10000 | 197
